Results: PMC4490784, “Compensatory induction of MYC expression by sustained CDK9 inhibition via a BRD4-dependent mechanism” (eLife, 2015)

Assays:
Assay in all cases: KINOMEscan binding assay
[1] = target: T1, TTK (Homo sapiens, UniProt P33981); conditions: read-out: % Retention on Solid Support
T1 construct: purchased DiscoveRx KINOMEscan
Summary of the method: (§1)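 Binding, not catalytic activity, is measured: the compound competes with an active-site-directed ligand. Screening concentrations were 1 and 10 µM, applied across more than 400 kinases.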

[2] = target: T2, MARK4 (Homo sapiens, UniProt Q96L34)
T2 construct: purchased DiscoveRx KINOMEscan
T2 sequence (Q96L34 whole entry): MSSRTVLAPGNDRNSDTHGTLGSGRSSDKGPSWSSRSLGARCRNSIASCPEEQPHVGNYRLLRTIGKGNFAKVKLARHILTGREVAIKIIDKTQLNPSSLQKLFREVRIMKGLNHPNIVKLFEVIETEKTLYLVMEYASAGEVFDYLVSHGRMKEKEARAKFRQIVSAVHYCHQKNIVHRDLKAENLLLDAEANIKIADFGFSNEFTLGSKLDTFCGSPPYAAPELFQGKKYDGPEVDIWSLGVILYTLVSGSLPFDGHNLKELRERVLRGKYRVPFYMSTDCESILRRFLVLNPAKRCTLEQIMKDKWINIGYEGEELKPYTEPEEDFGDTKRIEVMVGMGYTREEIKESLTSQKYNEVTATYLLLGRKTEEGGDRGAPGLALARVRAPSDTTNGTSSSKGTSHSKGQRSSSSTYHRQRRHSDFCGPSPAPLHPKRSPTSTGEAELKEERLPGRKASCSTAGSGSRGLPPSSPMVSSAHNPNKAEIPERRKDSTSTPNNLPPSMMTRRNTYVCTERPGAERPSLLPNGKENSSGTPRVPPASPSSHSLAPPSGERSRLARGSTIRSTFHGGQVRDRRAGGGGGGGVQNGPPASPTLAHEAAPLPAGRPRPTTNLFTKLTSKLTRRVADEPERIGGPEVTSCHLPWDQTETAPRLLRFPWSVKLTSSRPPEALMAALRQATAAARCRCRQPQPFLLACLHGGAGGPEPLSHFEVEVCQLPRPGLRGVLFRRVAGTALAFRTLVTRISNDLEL
Summary of the method: as §1

[3] = target: T3, TLK2 (Homo sapiens, UniProt Q86UE8); conditions: read-out: % Retention on Solid Support
T3 construct: purchased DiscoveRx KINOMEscan
Summary of the method: as §1

[4] = target: T4, CDK2 (Homo sapiens, UniProt P24941)
T4 construct: purchased DiscoveRx KINOMEscan
Summary of the method: as §1

[5] = target: T5, LTK (Homo sapiens, UniProt P29376); conditions: read-out: % Retention on Solid Support
T5 construct: purchased DiscoveRx KINOMEscan
Summary of the method: as §1

[6] = target: T6, ACVR1B (Homo sapiens, UniProt P36896); conditions: read-out: % Retention on Solid Support
T6 construct: purchased DiscoveRx KINOMEscan
T6 sequence (P36896 24-505): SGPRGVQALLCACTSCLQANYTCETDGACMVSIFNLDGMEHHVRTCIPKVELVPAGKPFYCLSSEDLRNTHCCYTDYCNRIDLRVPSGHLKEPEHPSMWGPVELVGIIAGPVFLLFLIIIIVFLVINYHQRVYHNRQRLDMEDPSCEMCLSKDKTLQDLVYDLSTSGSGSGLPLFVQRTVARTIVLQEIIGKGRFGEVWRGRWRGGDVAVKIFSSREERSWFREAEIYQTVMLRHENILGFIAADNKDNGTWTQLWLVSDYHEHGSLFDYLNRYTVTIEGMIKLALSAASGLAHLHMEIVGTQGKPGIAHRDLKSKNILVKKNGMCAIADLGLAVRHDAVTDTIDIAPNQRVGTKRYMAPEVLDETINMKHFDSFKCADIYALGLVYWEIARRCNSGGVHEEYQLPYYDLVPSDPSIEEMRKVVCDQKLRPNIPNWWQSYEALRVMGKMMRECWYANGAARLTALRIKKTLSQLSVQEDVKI
Summary of the method: as §1

[7] = target: T7, TYK2(JH2domain-pseudokinase) (Homo sapiens, UniProt P29597)
T7 construct: TYK2(JH2domain-pseudokinase); purchased DiscoveRx KINOMEscan
T7 sequence (P29597 556-888 limits assumed): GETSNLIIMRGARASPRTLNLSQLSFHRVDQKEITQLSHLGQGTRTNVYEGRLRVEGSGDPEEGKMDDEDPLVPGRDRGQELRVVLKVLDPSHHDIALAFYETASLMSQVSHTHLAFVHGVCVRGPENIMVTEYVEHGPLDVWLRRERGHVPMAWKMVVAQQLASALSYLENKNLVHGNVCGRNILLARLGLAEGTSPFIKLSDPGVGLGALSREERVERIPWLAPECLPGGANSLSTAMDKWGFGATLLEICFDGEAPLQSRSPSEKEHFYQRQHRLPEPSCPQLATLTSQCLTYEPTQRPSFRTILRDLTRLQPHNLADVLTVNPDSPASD
Summary of the method: as §1

[8] = target: T8, YSK4 (Homo sapiens, UniProt Q56UN5); conditions: read-out: % Retention on Solid Support
T8 construct: purchased DiscoveRx KINOMEscan
Summary of the method: as §1

[9] = target: T9, SRPK3 (Homo sapiens, UniProt Q9UPE1); conditions: read-out: % Retention on Solid Support
T9 construct: purchased DiscoveRx KINOMEscan
T9 sequence (Q9UPE1 whole entry): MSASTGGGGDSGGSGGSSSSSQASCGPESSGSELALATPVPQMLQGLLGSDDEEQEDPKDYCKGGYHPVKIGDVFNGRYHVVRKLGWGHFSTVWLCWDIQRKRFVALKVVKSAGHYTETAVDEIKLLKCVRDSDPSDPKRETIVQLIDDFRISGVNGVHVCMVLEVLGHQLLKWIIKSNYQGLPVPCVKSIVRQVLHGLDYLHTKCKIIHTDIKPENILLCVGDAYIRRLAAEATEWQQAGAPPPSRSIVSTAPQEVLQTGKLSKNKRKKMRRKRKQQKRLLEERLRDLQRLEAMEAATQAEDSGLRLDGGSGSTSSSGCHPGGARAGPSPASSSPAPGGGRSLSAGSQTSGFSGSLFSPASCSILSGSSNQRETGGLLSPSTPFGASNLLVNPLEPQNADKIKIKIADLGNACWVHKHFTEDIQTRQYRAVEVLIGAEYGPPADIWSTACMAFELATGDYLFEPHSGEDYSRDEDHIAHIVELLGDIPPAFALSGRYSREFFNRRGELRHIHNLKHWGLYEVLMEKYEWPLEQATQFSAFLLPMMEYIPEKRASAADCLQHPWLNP
Summary of the method: as §1

[10] = target: T10, PIK3CA(H1047L) (Homo sapiens, UniProt P42336, H1047L); conditions: read-out: % Retention on Solid Support
T10 construct: purchased DiscoveRx KINOMEscan
Summary of the method: as §1

[11] = target: T11, PDPK1 (Homo sapiens, UniProt O15530); conditions: read-out: % Retention on Solid Support
T11 construct: purchased DiscoveRx KINOMEscan
T11 sequence (O15530 1-556): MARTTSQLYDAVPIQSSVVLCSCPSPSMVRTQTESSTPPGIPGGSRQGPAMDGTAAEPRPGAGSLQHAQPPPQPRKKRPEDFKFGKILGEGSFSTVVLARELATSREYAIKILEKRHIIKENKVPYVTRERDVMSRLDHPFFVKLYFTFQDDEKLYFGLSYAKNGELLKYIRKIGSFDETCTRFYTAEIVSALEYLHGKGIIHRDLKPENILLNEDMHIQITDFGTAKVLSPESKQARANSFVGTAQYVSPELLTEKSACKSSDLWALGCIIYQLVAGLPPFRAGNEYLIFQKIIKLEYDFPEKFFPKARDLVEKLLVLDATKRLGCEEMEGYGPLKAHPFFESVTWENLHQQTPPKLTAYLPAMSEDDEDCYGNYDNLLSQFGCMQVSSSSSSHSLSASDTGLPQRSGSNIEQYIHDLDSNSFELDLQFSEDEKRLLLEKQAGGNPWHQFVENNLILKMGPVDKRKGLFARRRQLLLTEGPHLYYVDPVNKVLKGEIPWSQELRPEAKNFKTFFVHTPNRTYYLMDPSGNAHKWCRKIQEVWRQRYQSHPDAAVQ
Summary of the method: as §1

[12] = target: T12, MTOR (Homo sapiens, UniProt P42345); conditions: 1 µM i-CDK9; read-out: % Retention on Solid Support
T12 construct: purchased DiscoveRx KINOMEscan
Summary of the method: as §1

[13] = target: T13, GCN2(Kin.Dom.2,S808G) (Homo sapiens, UniProt Q9P2K8, S808G); conditions: read-out: % Retention on Solid Support
T13 construct: GCN2(Kin.Dom.2,S808G); purchased DiscoveRx KINOMEscan
T13 sequence (Q9P2K8 590-1001 S808G limits assumed): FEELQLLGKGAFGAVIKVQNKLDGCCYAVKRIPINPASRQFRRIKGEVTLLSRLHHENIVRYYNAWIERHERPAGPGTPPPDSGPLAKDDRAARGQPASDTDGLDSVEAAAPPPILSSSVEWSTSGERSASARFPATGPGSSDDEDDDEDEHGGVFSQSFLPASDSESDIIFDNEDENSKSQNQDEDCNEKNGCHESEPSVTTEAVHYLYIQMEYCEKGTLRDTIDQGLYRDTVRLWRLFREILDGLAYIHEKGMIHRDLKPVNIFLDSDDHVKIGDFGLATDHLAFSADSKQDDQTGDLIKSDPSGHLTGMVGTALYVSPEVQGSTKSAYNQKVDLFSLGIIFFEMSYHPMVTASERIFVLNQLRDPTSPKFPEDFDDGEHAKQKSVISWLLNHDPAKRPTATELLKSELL
Summary of the method: as §1

[14] = target: T14, AAK1 (Homo sapiens, UniProt Q2M2I8); conditions: read-out: % Retention on Solid Support
T14 construct: purchased DiscoveRx KINOMEscan
T14 sequence (Q2M2I8 whole entry): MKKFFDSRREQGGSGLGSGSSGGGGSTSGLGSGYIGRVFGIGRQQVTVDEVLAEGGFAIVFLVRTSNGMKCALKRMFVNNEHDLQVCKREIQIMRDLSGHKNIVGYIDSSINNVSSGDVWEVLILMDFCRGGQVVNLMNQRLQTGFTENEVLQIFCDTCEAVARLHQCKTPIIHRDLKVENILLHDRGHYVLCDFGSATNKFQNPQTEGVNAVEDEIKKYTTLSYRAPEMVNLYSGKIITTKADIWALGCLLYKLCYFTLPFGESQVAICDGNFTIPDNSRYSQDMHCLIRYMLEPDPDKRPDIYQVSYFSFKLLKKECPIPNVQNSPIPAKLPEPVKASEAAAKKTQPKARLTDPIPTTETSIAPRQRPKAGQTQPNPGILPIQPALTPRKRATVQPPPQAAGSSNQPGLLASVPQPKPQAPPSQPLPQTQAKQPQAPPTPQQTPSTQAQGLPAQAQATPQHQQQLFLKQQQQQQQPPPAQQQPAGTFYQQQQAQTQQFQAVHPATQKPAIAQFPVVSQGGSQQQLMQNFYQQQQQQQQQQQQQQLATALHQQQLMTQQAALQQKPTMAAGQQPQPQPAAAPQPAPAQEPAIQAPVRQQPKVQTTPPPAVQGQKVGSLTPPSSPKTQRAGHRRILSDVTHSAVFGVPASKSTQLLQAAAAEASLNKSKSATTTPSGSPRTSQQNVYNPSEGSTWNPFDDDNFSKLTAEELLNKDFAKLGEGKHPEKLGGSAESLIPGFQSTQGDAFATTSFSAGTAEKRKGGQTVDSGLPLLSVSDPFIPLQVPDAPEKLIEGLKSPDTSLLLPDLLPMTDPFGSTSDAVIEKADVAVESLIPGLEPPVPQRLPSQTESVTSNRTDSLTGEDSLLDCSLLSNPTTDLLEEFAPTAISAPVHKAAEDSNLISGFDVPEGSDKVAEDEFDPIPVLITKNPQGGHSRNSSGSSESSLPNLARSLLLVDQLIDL
Summary of the method: as §1

[15] = target: T15, MYO3A (Homo sapiens, UniProt Q8NEV4); conditions: read-out: % Retention on Solid Support
T15 construct: purchased DiscoveRx KINOMEscan
Summary of the method: as §1

[16] = target: T16, ACVR2B (Homo sapiens, UniProt Q13705)
T16 construct: purchased DiscoveRx KINOMEscan
T16 sequence (Q13705 19-512): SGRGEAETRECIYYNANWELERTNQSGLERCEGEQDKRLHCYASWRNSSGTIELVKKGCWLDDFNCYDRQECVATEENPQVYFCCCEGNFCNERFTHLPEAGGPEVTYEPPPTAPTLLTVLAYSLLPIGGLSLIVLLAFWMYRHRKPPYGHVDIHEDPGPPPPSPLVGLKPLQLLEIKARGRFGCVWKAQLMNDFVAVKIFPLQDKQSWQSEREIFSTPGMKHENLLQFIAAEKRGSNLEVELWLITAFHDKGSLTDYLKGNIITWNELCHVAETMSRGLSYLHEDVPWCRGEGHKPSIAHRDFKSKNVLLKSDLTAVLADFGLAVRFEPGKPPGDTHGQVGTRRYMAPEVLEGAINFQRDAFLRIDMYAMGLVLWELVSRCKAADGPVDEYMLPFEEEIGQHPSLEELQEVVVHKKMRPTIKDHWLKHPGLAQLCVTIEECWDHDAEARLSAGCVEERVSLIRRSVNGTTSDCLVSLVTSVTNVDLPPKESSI
Summary of the method: as §1

[17] = target: T17, DAPK1 (Homo sapiens, UniProt P53355); conditions: read-out: % Retention on Solid Support
T17 construct: purchased DiscoveRx KINOMEscan
Summary of the method: as §1

[18] = target: T18, PIP5K1C (Homo sapiens, UniProt O60331); conditions: 1 µM i-CDK9
T18 construct: purchased DiscoveRx KINOMEscan
Summary of the method: as §1

T1 sequence (P33981 whole entry): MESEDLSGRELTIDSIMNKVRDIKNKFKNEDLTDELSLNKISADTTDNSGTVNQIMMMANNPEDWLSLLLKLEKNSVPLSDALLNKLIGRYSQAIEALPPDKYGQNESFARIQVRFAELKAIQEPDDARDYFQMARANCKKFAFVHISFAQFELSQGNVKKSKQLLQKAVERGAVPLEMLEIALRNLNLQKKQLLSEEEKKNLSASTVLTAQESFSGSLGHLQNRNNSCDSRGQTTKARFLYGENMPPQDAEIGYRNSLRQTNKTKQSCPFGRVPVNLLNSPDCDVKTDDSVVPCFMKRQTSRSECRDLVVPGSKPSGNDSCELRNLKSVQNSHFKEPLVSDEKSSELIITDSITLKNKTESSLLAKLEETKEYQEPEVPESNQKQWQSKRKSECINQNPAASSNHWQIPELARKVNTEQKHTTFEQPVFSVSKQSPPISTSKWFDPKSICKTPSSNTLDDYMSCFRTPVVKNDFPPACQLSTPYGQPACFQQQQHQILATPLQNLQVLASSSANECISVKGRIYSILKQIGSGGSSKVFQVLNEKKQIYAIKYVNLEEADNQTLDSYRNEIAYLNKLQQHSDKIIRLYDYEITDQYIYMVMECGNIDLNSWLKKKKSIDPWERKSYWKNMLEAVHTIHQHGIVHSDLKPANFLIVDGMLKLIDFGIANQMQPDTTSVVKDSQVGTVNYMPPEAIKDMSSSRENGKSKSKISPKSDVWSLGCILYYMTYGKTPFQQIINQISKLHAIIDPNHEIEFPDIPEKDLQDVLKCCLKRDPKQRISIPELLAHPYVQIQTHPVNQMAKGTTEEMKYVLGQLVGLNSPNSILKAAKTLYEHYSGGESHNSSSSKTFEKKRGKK

`N[C@H]1CC[C@H](Nc2cc(-c3cccc(NCc4cccc(F)c4)n3)c(Cl)cn2)CC1` [i-CDK9, N2′-(trans-4-aminocyclohexyl)-5′-chloro-N6-(3-fluorobenzyl)-2,4′-bipyridine-2′,6-diamine] was tested, and the remaining binding at 1 µM ([1]; 1 µM i-CDK9) was 100%, the remaining binding at 10 µM ([1]; 10 µM i-CDK9) was 100% and the “% Retention on Solid Support” value ([2]; 1 µM i-CDK9) was 100%. For the same compound, the “% Retention on Solid Support” value ([2]; 10 µM i-CDK9) was 100%, the remaining binding at 1 µM ([3]; 1 µM i-CDK9) was 100% and the remaining binding at 10 µM ([3]; 10 µM i-CDK9) was 100%. For the same compound, the “% Retention on Solid Support” value ([4]; 1 µM i-CDK9) was 85%, the “% Retention on Solid Support” value ([4]; 10 µM i-CDK9) was 19% and the remaining binding at 1 µM ([5]; 1 µM i-CDK9) was 92%. It also gave a remaining binding at 10 µM ([5]; 10 µM i-CDK9) of 100%, a remaining binding at 1 µM ([6]; 1 µM i-CDK9) of 69% and a remaining binding at 10 µM ([6]; 10 µM i-CDK9) of 100%. The “% Retention on Solid Support” value ([7]; 1 µM i-CDK9) was 100%, the “% Retention on Solid Support” value ([7]; 10 µM i-CDK9) was 86% and the remaining binding at 1 µM ([8]; 1 µM i-CDK9) was 100%. The remaining binding at 10 µM ([8]; 10 µM i-CDK9) was 68%, the remaining binding at 1 µM ([9]; 1 µM i-CDK9) was 100% and the remaining binding at 10 µM ([9]; 10 µM i-CDK9) was 100%. For the same compound, the remaining binding at 1 µM ([10]; 1 µM i-CDK9) was 99%, the remaining binding at 10 µM ([10]; 10 µM i-CDK9) was 100% and the remaining binding at 1 µM ([11]; 1 µM i-CDK9) was 100%. It also gave a remaining binding at 10 µM ([11]; 10 µM i-CDK9) of 90%, a remaining binding at 1 µM [12] of 100% and a remaining binding at 1 µM ([13]; 1 µM i-CDK9) of 100%. For the same compound, the remaining binding at 10 µM ([13]; 10 µM i-CDK9) was 100%, the remaining binding at 1 µM ([14]; 1 µM i-CDK9) was 100% and the remaining binding at 10 µM ([14]; 10 µM i-CDK9) was 100%. For the same compound, the remaining binding at 1 µM ([15]; 1 µM i-CDK9) was 91%, the remaining binding at 10 µM ([15]; 10 µM i-CDK9) was 96% and the “% Retention on Solid Support” value ([16]; 1 µM i-CDK9) was 100%. The “% Retention on Solid Support” value ([16]; 10 µM i-CDK9) was 85%, the remaining binding at 1 µM ([17]; 1 µM i-CDK9) was 64% and the remaining binding at 10 µM ([17]; 10 µM i-CDK9) was 100%. For the same compound, the “% Retention on Solid Support” value [18] was 85%.
